In patent US9657351B2, “MRNA-based gene expression for personalizing patient cancer therapy with an MDM2 antagonist” (Hoffmann-La Roche Inc., priority 2013, dated 2017):

Tests used:
Assay in all cases: COMPOUND A In Vitro Assay
Assay type in all cases: cell-based
MFM-223 = settings: Homo sapiens, Breast, mammary gland, TP53 Mutant
Excerpt: (§1) To generate an MDM2 antagonist therapy predictive signature, the response of MDM2 antagonist therapy in vitro with gene expression profiling (FIG. 1) is combined. A bank of 287 human cancer cell lines, collectively termed the Cell Lines for Oncology/Chugai ACcumulative Tumour EncycLopedia (CELLO/CACTEL), representing a broad array of diverse human cancer tumor types are subject to evaluation using several high-throughput genomic technology platforms. The mutational status of nucleic acids from each cell line is determined by exome sequencing. Messenger RNA (mRNA) expression levels at baseline, prior to MDM2 antagonist therapy, are obtained via RNA sequencing. MDM2 antagonist therapy COMPOUND A, sometimes referred to herein as RG7112, responses are obtained by assays known to those skilled in the art such as RNA sequencing and microarray measurement using Gene Chip Human Genome U133 Plus 2.0 Array. The MDM2 therapy responses are obtained by high throughout screening assays. Depending on their responses to COMPOUND A these cell lines are classified as either sensitive, defined as IC50<=1, or resistant, defined as IC50>=10.
(§2) 281 cells are treated with MDM2 antagonists and the IC50 (therapy response) is generated. The cell lines span a broad range of tumor cell types of derivation.

PA-1 = settings: Homo sapiens
Excerpt: as §1, §2

EFO-21 = settings: Homo sapiens, Ovary, TP53 Mutant
Excerpt: as §1, §2

ACHN = settings: Homo sapiens
Excerpt: as §1, §2

RPMI-8226 = settings: Homo sapiens, Lymphocyte B, peripheral blood, TP53 Mutant
Excerpt: as §1, §2

TT = settings: Homo sapiens, Thyroid gland, TP53 Wild type
Excerpt: as §1, §2

NCI-H146 = settings: Homo sapiens, Lung, TP53 Mutant
Excerpt: as §1, §2

KG-1a = settings: Homo sapiens, Bone marrow, TP53 Mutant
Excerpt: as §1, §2

SUM52PE = settings: Homo sapiens, Breast, TP53 Wild type
Excerpt: as §1, §2

KG-1 = settings: Homo sapiens, Bone marrow, TP53 Mutant
Excerpt: as §1, §2

MKN-28 = settings: Homo sapiens, Stomach, TP53 Mutant
Excerpt: as §1, §2

NUGC-3 = settings: Homo sapiens, Stomach, TP53 Mutant
Excerpt: as §1, §2

MEG-01 = settings: Homo sapiens, Leukemia, chronic myeloid, TP53 Mutant
Excerpt: as §1, §2

HCC827 = settings: Homo sapiens, Lung, TP53 Mutant
Excerpt: as §1, §2

NCI-H69 = settings: Homo sapiens, Lung, TP53 Mutant
Excerpt: as §1, §2

DMS 114 = settings: Homo sapiens, Lung, TP53 Mutant
Excerpt: as §1, §2

MG-63 = settings: Homo sapiens, Bone, TP53 Mutant
Excerpt: as §1, §2

MDA-MB-453 = settings: Homo sapiens, Breast, mammary gland, TP53 Mutant
Excerpt: as §1, §2

RPMI-2650 = settings: Homo sapiens
Excerpt: as §1, §2

WiDr = settings: Homo sapiens, Intestine, large, colon, TP53 Mutant
Excerpt: as §1, §2

HCC1937 = settings: Homo sapiens, Breast, TP53 NA
Excerpt: as §1, §2

NCI-H2170 = settings: Homo sapiens, Lung, TP53 Mutant
Excerpt: as §1, §2

5637 = settings: Homo sapiens, Urinary, bladder, TP53 Mutant
Excerpt: as §1, §2

MCF7 = settings: Homo sapiens
Excerpt: as §1, §2

NCI-H23 = settings: Homo sapiens, Lung, TP53 NA
Excerpt: as §1, §2

SW1116 = settings: Homo sapiens, SW 1116, Intestine, large, colon, TP53 Mutant
Excerpt: as §1, §2

LS 174T = settings: Homo sapiens, LS174T
Excerpt: as §1, §2

NCI-H748 = settings: Homo sapiens, Lung, TP53 Mutant
Excerpt: as §1, §2

KYSE-520 = settings: Homo sapiens, Esophagus, TP53 Mutant
Excerpt: as §1, §2

KARPAS-299 = settings: Homo sapiens, Blood, TP53 Mutant
Excerpt: as §1, §2

Y79 = settings: Homo sapiens
Excerpt: as §1, §2

Hs 38•T = settings: Homo sapiens
Excerpt: as §1, §2

KELLY = settings: Homo sapiens, Brain, TP53 Mutant
Excerpt: as §1, §2

NCI-H1048 = settings: Homo sapiens, Lung, TP53 Mutant
Excerpt: as §1, §2

SK-MES-1 = settings: Homo sapiens, Lung, TP53 Mutant
Excerpt: as §1, §2

MDA-MB-361 = settings: Homo sapiens, Breast, mammary gland, TP53 Mutant
Excerpt: as §1, §2

`CCOc1cc(C(C)(C)C)ccc1C1=N[C@@](C)(c2ccc(Cl)cc2)[C@@](C)(c2ccc(Cl)cc2)N1C(=O)N1CCN(CCCS(C)(=O)=O)CC1` [COMPOUND A] was tested, and the IC50 (MFM-223) was 17 µM, the IC50 (PA-1; PA-1, PA-1, Ovary, TP53 Wild type) was 0.62 µM and the IC50 (PA-1; PA-1, PA-1 cells) was 0.6 µM. The IC50 (EFO-21) was 31 µM, the IC50 (ACHN; ACHN cells) was 0.3 µM and the IC50 (ACHN; Kidney, TP53 Wild type) was 0.29 µM. It also gave an IC50 (RPMI-8226) of 6.6 µM, an IC50 (TT) of 2 µM and an IC50 (NCI-H146) of 8.3 µM. It also gave an IC50 (KG-1a) of 9 µM, an IC50 (SUM52PE) of 8.7 µM and an IC50 (KG-1) of 15 µM. For the same compound, the IC50 (MKN-28) was 8.1 µM, the IC50 (NUGC-3) was 9.8 µM and the IC50 (MEG-01) was 17 µM. The IC50 (HCC827) was 8.9 µM, the IC50 (NCI-H69) was 15 µM and the IC50 (DMS 114) was 10 µM. For the same compound, the IC50 (MG-63) was 16 µM, the IC50 (MDA-MB-453) was 20 µM and the IC50 (RPMI-2650; RPMI-2650, RPMI-2650, Nasal septum, TP53 Wild type) was 0.77 µM. It also gave an IC50 (RPMI-2650; RPMI-2650, RPMI-2650 cells) of 0.8 µM, an IC50 (WiDr) of 8.9 µM and an IC50 (HCC1937) of 15 µM. For the same compound, the IC50 (NCI-H2170) was 12 µM, the IC50 5637 was 8.5 µM and the IC50 (MCF7; MCF7, MCF7, Breast, mammary gland, TP53 Wild type) was 0.75 µM. The IC50 (MCF7; MCF7, MCF7 cells) was 0.8 µM, the IC50 (NCI-H23) was 10 µM and the IC50 (SW1116) was 12 µM. It also gave an IC50 (LS 174T; LS 174T cells) of 0.6 µM, an IC50 (LS 174T; LS 174T, Intestine, large, colon, TP53 Wild type) of 0.59 µM and an IC50 (NCI-H748) of 16 µM. For the same compound, the IC50 (KYSE-520) was 10 µM, the IC50 (KARPAS-299) was 19 µM and the IC50 (Y79; Y79, Y79, Eye, retina, TP53 Wild type) was 0.61 µM. It also gave an IC50 (Y79; Y79, Y79 cells) of 0.6 µM, an IC50 (Hs 38•T; Hs 38•T cells) of 0.7 µM and an IC50 (Hs 38•T; Hs 38•T, Ovary, TP53 Wild type) of 0.73 µM. For the same compound, the IC50 (KELLY) was 15 µM, the IC50 (NCI-H1048) was 9.4 µM and the IC50 (SK-MES-1) was 6 µM. For the same compound, the IC50 (MDA-MB-361) was 21 µM.
